Values of other authors as cited in patent US20170128482A1, “MODIFIED RELEASE PHARMACEUTICAL COMPOSITIONS OF […] RIBAVIRIN” (SANOVEL ILAC SANAYI VE TICARET A.S., priority 2014, published 2017).

Assays:
[1] = system: chronic hepatitis C (CHC) infections / HCV; details: ribavirin alone
[2] = system: Cytochrome P450 (CYP450)

| Molecule | sustained virologic response [1] | HCV RNA levels ([1]; during or after therapy) | alanine aminotransferase (ALT) levels ([1]; during the course of treatment, some patients with CHC) | metabolism by Cytochrome P450 (CYP450) [2] |
| --- | --- | --- | --- | --- |
| 1-β-Dribofuranosyl-1H-1,2,4-triazole-3-carboxamide [Ribavirin] | did not produce any sustained virologic response | did not reduce | transiently | – |
| CC(C)OC(=O)[C@H](C)N[P@](=O)(OC[C@H]1O[C@@H](n2ccc(=O)[nH]c2=O)[C@](C)(F)[C@@H]1O)Oc1ccccc1 [Sofosbuvir, (S)-Isopropyl 2-((S)-(((2R,3R,4R,5R)-5-(2,4-dioxo3,4-dihydropyrimidin-1(2H)-yl)-4-fluoro-3-hydroxy-4-methyltetrahydrofuran-2yl)methoxy)-(phenoxy)phosphorylamino)propanoate] | – | – | – | not metabolized |
